Assay results as given in ChEMBL document CHEMBL1157539, “Thousands of chemical starting points for antimalarial lead identification” (Nature, 2010).

These molecules were tested on Plasmodium falciparum (assay: GSK_TCMDC: Inhibition of Plasmodium falciparum 3D7 in whole erythrocytes, using parasite LDH activity as an index of growth.). Settings: Plasmodium falciparum, 3D7.
Type: functional, organism-based
For `COc1ccc2nccc(N/N=C/c3ccc([N+](=O)[O-])cc3)c2c1`, the XC50 was 712 nM. Molecule `CCCc1cc2c3c(N)nc(N)nc3ccc2n1C(CC)CC` has an XC50 of 3.2 nM. `CCN(CC)c1ccc(C(=O)Cn2ccc(=N)cc2)cc1` was tested, and the XC50 was 998 nM. In the case of `CCCc1cc(=O)[nH]c(-n2nc(C)cc2NC(=O)C(CC)c2ccccc2)n1` (configuration not stated), the XC50 is reported as 944 nM. Work on `COc1ccc(C(C(=O)NC2CCN(C[C@H](O)c3ccnc4ccc(OC)cc34)CC2)N2CCN(Cc3ccccc3)CC2)cc1` (some centres not stated) yielded an XC50 of 149 nM. `COc1ccc(-n2ncc(C(=O)N3CCC4(C3)C(=O)N(c3ccccc3)c3ccccc34)c2C)cc1` (configuration not stated) was tested, and the XC50 was 932 nM. `O=C(N[C@H]1CCN(Cc2ccc(OCCCN3CCCCC3)cc2)C1)c1ccc2ccccc2c1` showed an XC50 of 764 nM. Molecule `COc1cc(NC(=O)N2CCc3cc(OC)c(OCCN4CCCCC4)cc32)cc(C(F)(F)F)c1` has an XC50 of 1150 nM. Work on `Cc1cc(N[C@@H](CC(C)C)C(=O)NCCc2ccccc2)nc(NCc2ccccc2C)n1` yielded an XC50 of 906 nM. In the case of `Cc1cc(-c2nc3cc(C(=N)N)ccc3[nH]2)c(C)cc1-c1nc2cc(C(=N)N)ccc2[nH]1`, the XC50 is reported as 397 nM. With `CCCNCc1ccc(-c2ccc(CN(Cc3cccs3)C(=O)C3CCN(C)CC3)cc2)nc1` the XC50 was 665 nM. For `CC(C)C[C@H]1c2[nH]c3ccc(Cl)cc3c2CCN1C(=O)CCc1ccccc1`, the XC50 was 885 nM. Molecule `CC(C)(C)c1nn(-c2ccccc2)c2[nH]c(=O)c(CNCc3ccc4c(c3)OCO4)cc12` has an XC50 of 1050 nM. With `N=C(N)c1cc(Cl)cc(NC(=O)Nc2cc(Cl)cc(C(=N)N)c2)c1` the XC50 was 719 nM. `COCCN(C)CCCOc1cc2c(cc1OC)ncn2-c1cc(OCc2ccccc2C(F)(F)F)c(C(N)=O)s1` gave an XC50 of 710 nM. With `O=[N+]([O-])c1ccc(N2CCCN(C(=S)Nc3ccc(F)cc3Br)CC2)nc1` the XC50 was 302 nM. Work on `CN(C)CCOc1ccc(-c2cc(-c3ccc(Cl)c(O)c3)c(-c3ccncc3)o2)cc1` yielded an XC50 of 1450 nM. With `Cn1cncc1-c1cc2c(Nc3ccc(OCc4ccccc4)cc3)ncnc2cn1` the XC50 was 268 nM. `CC(c1cccc(Nc2nccc(-c3c(-c4cccc(NC(=O)c5c(F)cccc5F)c4)nn4ccccc34)n2)c1)S(C)(=O)=O` (configuration not stated) was tested, and the XC50 was 57.5 nM. In the case of `O=C(Nc1cccc(CN2CCCN(Cc3ccc4c(c3)OCO4)CC2)c1)c1ccc2ccccc2c1`, the XC50 is reported as 1050 nM. For `COc1ccc(NC(=O)/C=C/c2ccccc2Cl)cc1OCCN1CCC(N2CCN(C)CC2)CC1`, the XC50 was 487 nM. In the case of `[O-][S+]1c2ccccc2Sc2ccccc21`, the XC50 is reported as 168 nM. `COc1cc2cc(C(=O)Nc3ccccc3)c(N)nc2cc1OC` was tested, and the XC50 was 1130 nM. In the case of `COc1ccc2nc3cc(Cl)ccc3c(NCCc3ccccc3)c2c1`, the XC50 is reported as 950 nM. `COc1cccc(CCNCc2ccc(-c3cccc(CNC4CCCC4)c3)cc2)c1` was tested, and the XC50 was 734 nM. In the case of `CC(C)(C)c1ccc(/C=C/C(=O)NCCCCCN2CCC(c3c[nH]c4ccccc34)CC2)cc1`, the XC50 is reported as 1090 nM. `COc1ccc(CNC2Cc3ccccc3C2)cc1-c1cccc(S(=O)(=O)NCCN2CCCC2)c1` showed an XC50 of 760 nM. With `CC(C)COc1ccc(Cl)cc1Cc1nc(-c2nc3ccc(CN(C)C)cc3[nH]2)co1` the XC50 was 711 nM. `COc1ccc2nccc([C@@H](O)CN3CCC(NC(=O)c4ccc5nc(-n6cccc6)sc5c4)CC3)c2c1` gave an XC50 of 1000 nM. In the case of `O=C(Nc1cccc(-c2cccc(CN3CCCC3)c2)c1)c1cccc(Cl)c1`, the XC50 is reported as 1180 nM. Work on `CCOC(=O)c1ccc(NC(=O)Nc2ccc(-c3cccc(-c4nc5cc(F)ccc5[nH]4)c3)cc2)cc1` yielded an XC50 of 122 nM. `COc1ccc(-c2cc(C(=O)N[C@@H](CC3CCCCC3)C(=O)NCCN3CCCCC3)ccc2O)cc1` gave an XC50 of 950 nM. `COc1ccc(-c2cc3nc4c(c(NCCCn5ccnc5)n3n2)CCCC4)cc1` showed an XC50 of 730 nM. `Oc1cc(Nc2ccnc3cc(-c4ccc(CN5CCCCC5)o4)ccc23)c(Cl)cc1F` gave an XC50 of 122 nM. With `Cc1cccc(CCCNC(=O)CN(c2cccc(C(F)(F)F)c2)S(=O)(=O)c2ccc(C(F)(F)F)cc2)c1` the XC50 was 684 nM. `N=C(N)NN=CC(=O)Nc1cccc(C(F)(F)F)c1` gave an XC50 of 1000 nM. `Cc1cc(Nc2ccc(Oc3ccc(Cl)cc3)cc2)nc(N)n1` showed an XC50 of 616 nM. With `Cc1cccc2nc(-c3ccc(-c4ccc(NC(=O)NCc5ccc(F)cc5)cc4)cc3)[nH]c12` the XC50 was 1330 nM. `CCN(CC)CCCSc1ccc(-c2ccc(SCCCN(CC)CC)cc2)cc1` gave an XC50 of 1160 nM. Molecule `CC(C)CNCc1cccc(-c2ccc(CN(CCCN3CCN(C)CC3)C(=O)CCC3CCCC3)cc2)c1` has an XC50 of 877 nM. For `C=CCOC(=O)N1CCC(CNCc2cccc(-c3ccc(-c4nc5cccc(C)c5[nH]4)cc3)c2)C1` (configuration not stated), the XC50 was 251 nM. For `COc1ccc(NC(=O)[C@H](Cc2ccccc2)Nc2cc(C)nc(NCC3CCCCC3)n2)cc1`, the XC50 was 678 nM. Work on `CN1CCC(Oc2cc(CN3CC[C@H](NC(=O)c4ccc(Cl)c(Cl)c4)C3)ccc2I)C1` (some centres not stated) yielded an XC50 of 843 nM. `CCN(CC)c1ccc2nc(N)nc(N)c2c1` was tested, and the XC50 was 73.9 nM. With `COc1ccc2c(NN=Cc3cccc(C)n3)ccnc2c1` the XC50 was 761 nM. For `NC1CCN(Cc2cccc(-c3ccc(-c4nc5ccccc5[nH]4)cc3)c2)C1` (configuration not stated), the XC50 was 830 nM. With `CC(=O)c1nccc(C)c1N` the XC50 was 929 nM. Molecule `Cc1cccc(OCC(=O)Nc2cccc(NC(=O)COc3cccc(C)c3)n2)c1` has an XC50 of 671 nM. `CC(Cc1ccc([N+](=O)[O-])cc1)NCC(O)c1cccc(C(F)(F)F)c1` (configuration not stated) showed an XC50 of 898 nM. In the case of `COc1cc2c(cc1OCCN1CCC(N3CCCCC3)CC1)N(C(=O)/C=C/c1ccccc1Cl)CC2`, the XC50 is reported as 280 nM. `CN(C(=O)/C=C/c1cc(C(F)(F)F)ccc1F)C1CCN(CCCCCNC(=O)/C=C/c2ccc(Cl)c(Cl)c2)C1` (configuration not stated) was tested, and the XC50 was 1090 nM. `CN(C)CCC(O)(c1ccc(Br)cc1)c1cccnc1` (configuration not stated) gave an XC50 of 831 nM. Work on `Nc1nc(-c2ccccn2)nc(-n2nc(-c3cccc(C(F)(F)F)c3)cc2N)n1` yielded an XC50 of 1040 nM. For `Cc1cc(N[C@@H](Cc2ccccc2)C(=O)NCCc2ccccc2)nc(NCCc2ccccc2)n1`, the XC50 was 850 nM. `CC[C@H]1CN2CC[C@H]1C[C@@H]2[C@@H](OC(=O)c1ccc(Cl)cc1)c1ccnc2ccc(OC)cc12` was tested, and the XC50 was 922 nM. In the case of `O=C(Nc1ccc(-c2nc3ccccc3[nH]2)cc1)c1cccc([N+](=O)[O-])c1`, the XC50 is reported as 220 nM. `Cc1cccc2nc(-c3ccc(-c4cccc(NC(=O)c5cncn5C)c4)cc3)[nH]c12` gave an XC50 of 861 nM. With `Cc1cc(NC2CCN(CC3CCCCC3)C2)nc(Nc2ccc(Br)cc2)n1` (configuration not stated) the XC50 was 566 nM. `COC(=O)c1ccc(CC(C)NCC(O)c2cccc(I)c2)cc1` (configuration not stated) was tested, and the XC50 was 1320 nM. Molecule `C=CC[C@H](C[C@H](O)[C@H](Cc1ccccc1)NC(=O)c1ccc(-c2cccnn2)cc1)C(=O)NC1CCCCC1` has an XC50 of 1190 nM. `COc1c(C2CCN(CCCCNC(=O)c3ccc(-c4ccc(C#N)cc4)c(O)c3)CC2)ccc2c1CCCC2` gave an XC50 of 199 nM. With `Cc1cc(NCCC(=O)Nc2ccccc2)nc(NCC2CCCCC2)n1` the XC50 was 841 nM. Molecule `CC(=O)Nc1ccc2[nH]cc(C3CCN(CC4CCN(C(=O)/C=C/c5ccc(Cl)c(Cl)c5)CC4)CC3)c2c1` has an XC50 of 723 nM. In the case of `CN1CCN(c2ccnc3ccc(NC(=O)N(C)c4ccc(Cl)c(Cl)c4)cc23)CC1`, the XC50 is reported as 741 nM. For `Oc1ccc(CCNCc2ccc(OCc3ccccc3)c(OCc3ccccc3)c2)cc1`, the XC50 was 1510 nM. Molecule `N=C(N)NC(=O)Nc1ccc(Cl)c([N+](=O)[O-])c1` has an XC50 of 762 nM. Work on `Cc1cc(-c2cnc(N)c(-c3ccc(N4CCN(C)CC4)cc3)c2)cc(C)c1O` yielded an XC50 of 1170 nM. With `OCCNc1nc(Nc2ccc(F)cc2)nc2ccccc12` the XC50 was 164 nM. `COc1ccc2nccc([C@@H](O)CN3CCC(NCc4ccc5nc[nH]c(=O)c5c4)CC3)c2c1` was tested, and the XC50 was 921 nM. Molecule `CN1CCCN(Cc2ccc(-c3cccc(NC(=O)c4cccc(F)c4)c3)cc2)CC1` has an XC50 of 980 nM. With `COc1ccc(-c2cccc(CNC3CCN(CC4Cn5c(=O)ccc6ccc(F)c4c65)CC3)c2)cc1` (configuration not stated) the XC50 was 1090 nM. `Cc1[nH]c(C)c(-c2ccc(CCc3ccc(F)cc3F)cc2)c(=O)c1Br` gave an XC50 of 5.29 nM. For `Cc1nc2ccccc2c(O)c1[N+](=O)[O-]`, the XC50 was 1110 nM. `COc1ccc2ncc(C#N)c(CCN3CCC(NCc4ccc5c(n4)NC(=O)CS5)CC3)c2n1` gave an XC50 of 836 nM. `CC1CCN(Cc2c(O)ccc3c(CN4CCC(C)CC4)c(O)ccc23)CC1` gave an XC50 of 133 nM. Work on `COc1cc2ncnc(Nc3ccc(OCc4ccccc4)c(OCc4ccccc4)c3)c2cc1OC` yielded an XC50 of 738 nM. Work on `CCN1CCc2c1cc(C(=O)N[C@@H](Cc1ccccc1)[C@H](O)CNC(C)(C)c1cccc(C(F)(F)F)c1)cc2N1CCCCS1(=O)=O` yielded an XC50 of 109 nM. Work on `CC(C)N(Cc1cnc(N)c(C#N)n1)c1ccc(Cl)c(Cl)c1` yielded an XC50 of 844 nM. Molecule `O=C(/C=C/c1ccc(Cl)c(Cl)c1)NCCCCCN1CCC(NC(=O)Nc2cc(F)cc(F)c2)CC1` has an XC50 of 787 nM. Molecule `COc1cc(Cc2cnc(N)nc2N)cc(OCCNC(=O)OCc2ccccc2)c1OC` has an XC50 of 923 nM. Molecule `O=C(Nc1cccc(CN2CCCN(Cc3cccc(O)c3)CC2)c1)c1ccc(-c2ccccc2)cc1` has an XC50 of 641 nM. For `CCCCCN1CCCC(CNS(=O)(=O)c2ccc(C(=O)Nc3ccc(C(F)(F)F)cc3)cc2)C1` (configuration not stated), the XC50 was 916 nM. For `c1ccn2c(-c3ncnc(NCc4ccc5c(c4)CCO5)n3)cnc2c1`, the XC50 was 1190 nM. With `CN1CCN(c2cccc(Nc3nccc(NCC(O)c4ccccc4)n3)c2)CC1` (configuration not stated) the XC50 was 718 nM. Molecule `CC(=O)N[C@@H]1c2cc(C(C)=O)ccc2OC(C)(C)[C@@H]1O` has an XC50 of 983 nM. `c1ccc(C(OCCC2CCN(Cc3cccc4cccnc34)CC2)c2ccccc2)cc1` gave an XC50 of 874 nM. `COc1cc2c(cc1OC)CC(NCCCCCCNCCc1ccc(Cl)cc1)CC2` (configuration not stated) gave an XC50 of 738 nM. Molecule `COc1ccc(NC(=O)[C@H](CC(C)C)Nc2cc(C)nc(NCCc3cccs3)n2)cc1` has an XC50 of 964 nM. `O=C(NC1CCN(CCN2CCC(c3c[nH]c4ccccc34)CC2)CC1)c1ccc(-c2ccc(C(F)(F)F)cc2)cc1` was tested, and the XC50 was 205 nM. Work on `CN1CCN(c2ccnc3cc4c(cc23)N(C(=O)Nc2ccc(-c3ccncc3)c3ccccc23)CC4)CC1` yielded an XC50 of 945 nM. Work on `COc1ccc2oc(=O)c(C#N)c(O)c2c1` yielded an XC50 of 211 nM. `CS(=O)(=O)Nc1ccc2[nH]cc(C3CCN(CC4CCC(NC(=O)/C=C/c5ccccc5Cl)CC4)CC3)c2c1` (configuration not stated) showed an XC50 of 793 nM. For `O=C(NCCCCN1CCN(c2cccc3c2OCCO3)CC1)c1ccc(NC(=O)c2cc(Cl)cc(Cl)c2)cc1`, the XC50 was 225 nM. `O=C(Nc1ccc(F)c(C(F)(F)F)c1)N[C@H]1CCN(CCCCCNC(=O)C2CC2c2ccc(Cl)c(Cl)c2)C1` (some centres not stated) gave an XC50 of 157 nM. In the case of `CCCCOc1ccc(/C=C/c2ccc(-c3c(C)[nH]c(C)c(Cl)c3=O)s2)cc1`, the XC50 is reported as 395 nM. With `CCOC(=O)c1ccc(NC(=O)Nc2ccc(-c3cccc(-c4nc5ccccc5[nH]4)c3)cc2)cc1` the XC50 was 145 nM. For `CS(=O)(=O)Nc1ccc2[nH]cc(C3CCN(CC4CCC(NC(=O)/C=C/c5ccc(Cl)c(Cl)c5)CC4)CC3)c2n1` (configuration not stated), the XC50 was 780 nM.
